What was measured:
Details in all cases: 48 h
NOMO1 [1] = test: cell viability relative to DMSO control; higher = less cytotoxic
In short: (§1)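 NOMO1, SEM and P12-Ichikawa leukemia cells spent at least four passages adapting to each medium before use. They were seeded at 500 cells/well (NOMO1, SEM) or 1000 cells/well (P12-Ichikawa) in 5 μl in 1536-well plates and pin-dosed with library compounds in DMSO at 11 threefold steps from 47 μM down to 0.79 nM. After 48 h at 37°C, CellTiter-Glo One luminescence was read. Viability is reported as a percentage of the DMSO wells on each plate, with cell-free wells as background.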

P12-Ichikawa [2] = test: as above
In short: as §1

SEM cells [3] = test: as above
In short: as §1

NOMO1 [4] = test: AUC of viability dose-response curve (% viability x log10 dose units); higher = less sensitive
In short: (§2)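 Seeding of medium-adapted leukemia cells was at 500 or 1000 cells/well in 1536-well plates, followed by 48 h at 37°C with library compounds in DMSO at 11 threefold doses from 47 μM to 0.79 nM. CellTiter-Glo One luminescence was normalised per plate to DMSO and cell-free wells and fitted as a four-parameter log-logistic function of log10 dose. Area under the curve was integrated by trapezoidal rule, with curves exceeding full viability scaled and curves failing quality control removed.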

P12-Ichikawa [5] = test: as above
In short: as §2

SEM cells [6] = test: as above
In short: as §2

CN(C)C1=CC=C(C=C1)C(C2=CC=C(C=C2)N(C)C)=C/3\C=C/C(/C=C3)=[N+](C)C
cell viability [%]
Details	NOMO1 [1]	P12-Ichikawa [2]	SEM cells [3]
HPLM + 10% dialyzed FBS, 0.000781 µM	102	114	101
HPLM + 10% dialyzed FBS, 0.00234 µM	114	107	98.3
HPLM + 10% dialyzed FBS, 0.00702 µM	136	122	113
HPLM + 10% dialyzed FBS, 0.0211 µM	132	116	98.1
HPLM + 10% dialyzed FBS, 0.0632 µM	103	115	116
HPLM + 10% dialyzed FBS, 0.19 µM	26.6	74.1	9.97
HPLM + 10% dialyzed FBS, 0.569 µM	9.97	18.5	4.77
HPLM + 10% dialyzed FBS, 1.71 µM	4.17	1.52	4.38
HPLM + 10% dialyzed FBS, 5.12 µM	4.13	1.65	4.51
HPLM + 10% dialyzed FBS, 15.4 µM	1.55	1.9	1.71
HPLM + 10% dialyzed FBS, 46.1 µM	0.245	0.24	1.2
RPMI 5 mM glucose + 10% FBS, 0.000781 µM	113	107	–
RPMI 5 mM glucose + 10% FBS, 0.00234 µM	98.4	103	–
RPMI 5 mM glucose + 10% FBS, 0.00702 µM	101	102	–
RPMI 5 mM glucose + 10% FBS, 0.0211 µM	113	111	–
RPMI 5 mM glucose + 10% FBS, 0.0632 µM	107	94.9	–
RPMI 5 mM glucose + 10% FBS, 0.19 µM	27.2	24.6	–
RPMI 5 mM glucose + 10% FBS, 0.569 µM	6.73	14.9	–
RPMI 5 mM glucose + 10% FBS, 1.71 µM	2.46	3.64	–
RPMI 5 mM glucose + 10% FBS, 5.12 µM	2.87	6.36	–
RPMI 5 mM glucose + 10% FBS, 15.4 µM	0.606	4.49	–
RPMI 5 mM glucose + 10% FBS, 46.1 µM	-0.00921	0.553	–
RPMI 5 mM glucose + 10% dialyzed FBS, 0.000781 µM	112	110	104
RPMI 5 mM glucose + 10% dialyzed FBS, 0.00234 µM	101	104	113
RPMI 5 mM glucose + 10% dialyzed FBS, 0.00702 µM	110	115	100
RPMI 5 mM glucose + 10% dialyzed FBS, 0.0211 µM	100	106	85.9
RPMI 5 mM glucose + 10% dialyzed FBS, 0.0632 µM	96.9	94.1	76.1
RPMI 5 mM glucose + 10% dialyzed FBS, 0.19 µM	33.1	34.3	8.49
RPMI 5 mM glucose + 10% dialyzed FBS, 0.569 µM	11.3	19.2	4.28
RPMI 5 mM glucose + 10% dialyzed FBS, 1.71 µM	5.56	10.9	2.86
RPMI 5 mM glucose + 10% dialyzed FBS, 5.12 µM	5.09	12.8	4.04
RPMI 5 mM glucose + 10% dialyzed FBS, 15.4 µM	1.49	3.78	1.22
RPMI 5 mM glucose + 10% dialyzed FBS, 46.1 µM	0.371	0.17	0.974

AUC of viability dose-response curve
Details	NOMO1 [4]	P12-Ichikawa [5]	SEM cells [6]
HPLM + 10% dialyzed FBS	225	253	226
RPMI 5 mM glucose + 10% FBS	232	233	218
RPMI 5 mM glucose + 10% dialyzed FBS	234	240	211

Nc1nc(N)c2nc(CNc3ccc(C(=O)NC(CCC(=O)O)C(=O)O)cc3)cnc2n1 (stereo not drawn)
cell viability [%]
Details	NOMO1 [1]	P12-Ichikawa [2]	SEM cells [3]
HPLM + 10% dialyzed FBS, 0.000781 µM	105	103	104
HPLM + 10% dialyzed FBS, 0.00234 µM	123	111	114
HPLM + 10% dialyzed FBS, 0.00702 µM	118	110	110
HPLM + 10% dialyzed FBS, 0.0211 µM	112	114	127
HPLM + 10% dialyzed FBS, 0.0632 µM	97.5	59.2	57.2
HPLM + 10% dialyzed FBS, 0.19 µM	70.4	47.7	36.6
HPLM + 10% dialyzed FBS, 0.569 µM	49.8	31	39.5
HPLM + 10% dialyzed FBS, 1.71 µM	57.1	31.8	45.6
HPLM + 10% dialyzed FBS, 5.12 µM	57.4	44	48.6
HPLM + 10% dialyzed FBS, 15.4 µM	61.4	39.6	41.8
HPLM + 10% dialyzed FBS, 46.1 µM	65.2	29.7	46.5
RPMI 5 mM glucose + 10% FBS, 0.000781 µM	97.1	103	111
RPMI 5 mM glucose + 10% FBS, 0.00234 µM	95.9	103	115
RPMI 5 mM glucose + 10% FBS, 0.00702 µM	103	103	120
RPMI 5 mM glucose + 10% FBS, 0.0211 µM	102	123	110
RPMI 5 mM glucose + 10% FBS, 0.0632 µM	92.9	71.2	92.2
RPMI 5 mM glucose + 10% FBS, 0.19 µM	118	37.9	56.5
RPMI 5 mM glucose + 10% FBS, 0.569 µM	103	46.6	83
RPMI 5 mM glucose + 10% FBS, 1.71 µM	106	47	76.4
RPMI 5 mM glucose + 10% FBS, 5.12 µM	112	38.5	99.7
RPMI 5 mM glucose + 10% FBS, 15.4 µM	133	51.2	86.5
RPMI 5 mM glucose + 10% FBS, 46.1 µM	117	61	87.5
RPMI 5 mM glucose + 10% dialyzed FBS, 0.000781 µM	119	105	96.2
RPMI 5 mM glucose + 10% dialyzed FBS, 0.00234 µM	117	95.5	103
RPMI 5 mM glucose + 10% dialyzed FBS, 0.00702 µM	118	105	104
RPMI 5 mM glucose + 10% dialyzed FBS, 0.0211 µM	131	112	104
RPMI 5 mM glucose + 10% dialyzed FBS, 0.0632 µM	72.7	86	30.5
RPMI 5 mM glucose + 10% dialyzed FBS, 0.19 µM	42.9	28.1	23.7
RPMI 5 mM glucose + 10% dialyzed FBS, 0.569 µM	38.3	25.8	23.1
RPMI 5 mM glucose + 10% dialyzed FBS, 1.71 µM	45	24	23.1
RPMI 5 mM glucose + 10% dialyzed FBS, 5.12 µM	46	25.9	28.8
RPMI 5 mM glucose + 10% dialyzed FBS, 15.4 µM	38.9	26.2	29.6
RPMI 5 mM glucose + 10% dialyzed FBS, 46.1 µM	40.1	26.2	23.8

AUC of viability dose-response curve
Details	NOMO1 [4]	P12-Ichikawa [5]	SEM cells [6]
HPLM + 10% dialyzed FBS	344	283	290
RPMI 5 mM glucose + 10% FBS	414	313	394
RPMI 5 mM glucose + 10% dialyzed FBS	286	272	247

Cc1cccc(Nc2nc(-c3ccncc3)cs2)c1
cell viability [%]
Details	NOMO1 [1]	SEM cells [3]
HPLM + 10% dialyzed FBS, 0.000781 µM	96.3	86.5
HPLM + 10% dialyzed FBS, 0.00234 µM	138	115
HPLM + 10% dialyzed FBS, 0.00702 µM	121	88.8
HPLM + 10% dialyzed FBS, 0.0211 µM	142	98.3
HPLM + 10% dialyzed FBS, 0.0632 µM	137	99.5
HPLM + 10% dialyzed FBS, 0.19 µM	140	126
HPLM + 10% dialyzed FBS, 0.569 µM	111	104
HPLM + 10% dialyzed FBS, 1.71 µM	145	117
HPLM + 10% dialyzed FBS, 5.12 µM	142	118
HPLM + 10% dialyzed FBS, 15.4 µM	136	112
HPLM + 10% dialyzed FBS, 46.1 µM	134	59.5
RPMI 5 mM glucose + 10% dialyzed FBS, 0.000781 µM	122	92.4
RPMI 5 mM glucose + 10% dialyzed FBS, 0.00234 µM	121	141
RPMI 5 mM glucose + 10% dialyzed FBS, 0.00702 µM	128	84
RPMI 5 mM glucose + 10% dialyzed FBS, 0.0211 µM	123	116
RPMI 5 mM glucose + 10% dialyzed FBS, 0.0632 µM	125	109
RPMI 5 mM glucose + 10% dialyzed FBS, 0.19 µM	135	125
RPMI 5 mM glucose + 10% dialyzed FBS, 0.569 µM	134	134
RPMI 5 mM glucose + 10% dialyzed FBS, 1.71 µM	129	130
RPMI 5 mM glucose + 10% dialyzed FBS, 5.12 µM	128	123
RPMI 5 mM glucose + 10% dialyzed FBS, 15.4 µM	134	96.3
RPMI 5 mM glucose + 10% dialyzed FBS, 46.1 µM	107	46.2

AUC of viability dose-response curve
Details	NOMO1 [4]	P12-Ichikawa [5]	SEM cells [6]
HPLM + 10% dialyzed FBS	442	470	466
RPMI 5 mM glucose + 10% FBS	466	469	464
RPMI 5 mM glucose + 10% dialyzed FBS	473	465	454

Source: the supplement of paper PMC11451515
